Source: patent US11713338B2, “Cyclic peptides multimers targeting α-4-β-7 integrin” (priority 2016, dated 2023)
pIC50: −log10 of the molar value.

Experiments:
[1] = biological target: T1, recombinant integrin α4β7 (Homo sapiens, UniProt P13612+P26010, DEL724-798); experiment: Integrin α4β7—MAdCAM-1 ELISA competition assay; assay type: binding; details: for ELISA Assay Ratio b1/b7: ratio of a4b1 to a4b7 ELISA IC50; for pIC50: read-out: ELISA a4b7 Assay IC50
T1 construct: purchased R&D Systems 5397-A3-050
T1 sequence (P13612 34-970 limits assumed): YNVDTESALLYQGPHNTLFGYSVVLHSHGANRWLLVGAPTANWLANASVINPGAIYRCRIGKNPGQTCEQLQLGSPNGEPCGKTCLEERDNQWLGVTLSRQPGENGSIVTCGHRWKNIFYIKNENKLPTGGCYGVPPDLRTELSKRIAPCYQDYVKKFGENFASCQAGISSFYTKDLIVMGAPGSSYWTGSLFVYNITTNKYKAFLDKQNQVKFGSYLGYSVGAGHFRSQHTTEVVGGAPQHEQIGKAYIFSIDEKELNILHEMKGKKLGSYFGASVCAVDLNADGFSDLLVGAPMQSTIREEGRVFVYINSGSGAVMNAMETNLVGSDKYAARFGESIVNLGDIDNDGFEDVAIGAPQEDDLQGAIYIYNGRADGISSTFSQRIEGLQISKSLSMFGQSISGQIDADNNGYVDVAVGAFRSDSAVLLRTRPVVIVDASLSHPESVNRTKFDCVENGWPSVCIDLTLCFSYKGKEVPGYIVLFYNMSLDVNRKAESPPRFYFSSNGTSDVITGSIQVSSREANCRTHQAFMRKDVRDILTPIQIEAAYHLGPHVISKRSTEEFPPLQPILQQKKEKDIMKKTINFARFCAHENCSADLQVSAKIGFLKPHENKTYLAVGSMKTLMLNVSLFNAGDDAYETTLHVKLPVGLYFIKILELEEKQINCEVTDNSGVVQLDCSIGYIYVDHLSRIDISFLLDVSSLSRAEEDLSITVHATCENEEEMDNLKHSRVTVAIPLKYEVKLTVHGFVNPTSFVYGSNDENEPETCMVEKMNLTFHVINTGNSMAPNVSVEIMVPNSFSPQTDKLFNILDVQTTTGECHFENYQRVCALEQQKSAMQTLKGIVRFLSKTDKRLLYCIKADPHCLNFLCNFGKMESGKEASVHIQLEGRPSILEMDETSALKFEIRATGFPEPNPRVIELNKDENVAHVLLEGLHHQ
T1 sequence (P26010 20-723 limits assumed): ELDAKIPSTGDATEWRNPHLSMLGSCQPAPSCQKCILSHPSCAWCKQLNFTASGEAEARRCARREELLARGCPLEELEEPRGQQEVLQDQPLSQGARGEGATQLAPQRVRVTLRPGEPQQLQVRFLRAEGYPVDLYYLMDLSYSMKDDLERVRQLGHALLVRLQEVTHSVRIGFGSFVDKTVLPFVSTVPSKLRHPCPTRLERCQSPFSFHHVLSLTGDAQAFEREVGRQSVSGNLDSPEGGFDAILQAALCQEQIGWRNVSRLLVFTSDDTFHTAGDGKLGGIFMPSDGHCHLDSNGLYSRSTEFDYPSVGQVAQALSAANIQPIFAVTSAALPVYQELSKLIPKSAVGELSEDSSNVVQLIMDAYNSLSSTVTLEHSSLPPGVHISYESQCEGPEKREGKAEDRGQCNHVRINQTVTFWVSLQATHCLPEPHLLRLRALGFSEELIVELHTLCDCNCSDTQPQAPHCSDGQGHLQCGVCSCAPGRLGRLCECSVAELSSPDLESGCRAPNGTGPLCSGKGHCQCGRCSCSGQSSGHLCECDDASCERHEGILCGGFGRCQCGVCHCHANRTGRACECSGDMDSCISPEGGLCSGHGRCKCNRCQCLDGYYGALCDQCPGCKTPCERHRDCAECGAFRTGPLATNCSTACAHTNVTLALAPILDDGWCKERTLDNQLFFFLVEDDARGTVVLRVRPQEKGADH
Method: Integrin α4β7—MAdCAM-1 ELISA Competition Assay
The plate was incubated at 40C overnight. […] The plate was then incubated for 1 hour at room temperature. The plate was washed three times with wash buffer (50 mM Tris, 100 mM NaCl, 1 mM MnCl2, 0.05% Tween). To each well, 50 μl of compound diluted in assay buffer was added by transfer from a compound serial dilution plate. […] The plate was incubated at room temperature with shaking (300 rpm) for 2 hours to reach binding equilibrium. […] The plate was incubated at room temperature for 1 hour under agitation.

[2] = biological target: T2, recombinant integrin α4β1 (Homo sapiens, UniProt P05556+P13612); experiment: Integrin α4β1—VCAM-1 competition ELISA; assay type: binding; details: for pIC50: read-out: ELISA a4b1 Assay IC50
T2 construct: purchased R&D Systems 5397-A3-050
Method: Integrin α4β1—VCAM-1 Competition ELISA
The plate was incubated at 4° C. overnight. […] The plate was then incubated for 1 hour at room temperature. The plate was washed three times with wash buffer (50 mM Tris, 100 mM NaCl, 1 mM MnCl2, 0.05% Tween). To each well, 50 μl of compound diluted in assay buffer was added by transfer from a compound serial dilution plate. […] The plate was incubated at room temperature with shaking (300 rpm) for 2 hours to reach binding equilibrium. Then the plate was washed three times in wash buffer and 100 μl anti-human IgG Fc specific-HRP (Abcam, Ab97225) diluted at 1:2000 in assay buffer was added to each well. The plate was incubated at room temperature for 1 hour under agitation.

T2 sequence (P05556 21-728 limits assumed, one chain of several): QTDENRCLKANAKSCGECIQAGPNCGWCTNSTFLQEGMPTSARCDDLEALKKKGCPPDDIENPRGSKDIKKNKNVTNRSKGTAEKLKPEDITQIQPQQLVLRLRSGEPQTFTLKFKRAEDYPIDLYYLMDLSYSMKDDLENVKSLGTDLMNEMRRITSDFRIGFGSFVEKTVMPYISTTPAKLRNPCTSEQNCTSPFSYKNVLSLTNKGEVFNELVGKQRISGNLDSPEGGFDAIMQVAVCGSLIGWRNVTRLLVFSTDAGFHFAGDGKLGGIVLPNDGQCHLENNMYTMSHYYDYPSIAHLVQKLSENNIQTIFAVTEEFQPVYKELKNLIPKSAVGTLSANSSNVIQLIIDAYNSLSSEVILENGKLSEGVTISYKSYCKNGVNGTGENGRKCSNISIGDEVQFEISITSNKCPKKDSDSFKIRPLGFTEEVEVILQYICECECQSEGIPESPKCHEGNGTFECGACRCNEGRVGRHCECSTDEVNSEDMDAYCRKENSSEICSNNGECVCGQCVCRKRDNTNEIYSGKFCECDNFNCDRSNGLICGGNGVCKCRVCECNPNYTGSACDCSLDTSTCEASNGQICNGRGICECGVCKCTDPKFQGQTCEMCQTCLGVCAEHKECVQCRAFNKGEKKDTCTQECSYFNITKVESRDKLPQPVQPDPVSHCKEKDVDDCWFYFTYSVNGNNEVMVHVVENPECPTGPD

Row | SMILES | ELISA Assay Ratio b1/b7 [1] | pIC50 [2] | pIC50 [1] | ELISA Assay Ratio β1/β7 ([2]; ratio of ELISA IC50s, α4β1 over α4β7)
1 | CC(C)C[C@@H]1NC(=O)[C@H](Cc2c[nH]cn2)NC(=O)[C@@H]2CCCN2[C@H](C(=O)NC(C)(C)C)[C@@H](CSc2ccccc2)NC(=O)[C@H](C(C)C)NC(=O)[C@H](CC(=O)O)NC1=O [Compound 2] | 1.697 | 6.73 | – | –
2 | CC(C)C[C@@H]1NC(=O)[C@H](CCc2ccccc2)NC(=O)[C@@H]2CCCN2[C@H](C(=O)NC(C)(C)C)[C@H](C)NC(=O)[C@H]([C@@H](C)O)NC(=O)[C@H](CC(=O)O)NC1=O [Compound 6] | 1.9 | 6.70 | 6.99 | –
3 | CC(C)C[C@@H]1NC(=O)[C@H](CC2CCCCC2)NC(=O)[C@@H]2CCCN2[C@H](C(=O)NC(C)(C)C)[C@H](C)NC(=O)[C@H]([C@@H](C)O)NC(=O)[C@H](CC(=O)O)NC1=O [Compound 7] | 1.6 | 6.72 | 6.93 | –
4 | CC(C)C[C@@H]1NC(=O)[C@H](Cc2cccc3ccccc23)NC(=O)[C@@H]2CCCN2[C@H](C(=O)NC(C)(C)C)[C@H](C)NC(=O)[C@H]([C@@H](C)O)NC(=O)[C@H](CC(=O)O)NC1=O [Compound 9] | 1.7 | 6.97 | 7.21 | –
5 | CC(C)C[C@@H]1NC(=O)[C@H](Cc2ccc3ccccc3c2)NC(=O)[C@@H]2CCCN2[C@H](C(=O)NC(C)(C)C)[C@H](C)NC(=O)[C@H]([C@@H](C)O)NC(=O)[C@H](CC(=O)O)NC1=O [Compound 10] | 1.3 | 7.15 | 7.28 | –
6 | CO[C@H](C)[C@@H]1NC(=O)[C@H](CC(=O)O)NC(=O)[C@H](CC(C)C)NC(=O)[C@H](Cc2ccccc2)NC(=O)[C@@H]2CCCN2[C@H](C(=O)NC(C)(C)C)[C@H](C)NC1=O [Compound 40] | 1.9 | 6.92 | 7.20 | –
7 | CCO[C@H](C)[C@@H]1NC(=O)[C@H](CC(=O)O)NC(=O)[C@H](CC(C)C)NC(=O)[C@H](Cc2ccccc2)NC(=O)[C@@H]2CCCN2[C@H](C(=O)NC(C)(C)C)[C@H](C)NC1=O [Compound 41] | – | 6.97 | – | –
8 | CC(C)C[C@@H]1NC(=O)[C@H](Cc2cccnc2)NC(=O)[C@@H]2C[C@@H](O)CN2[C@H](C(=O)NC(C)(C)C)[C@H](C)NC(=O)[C@H]([C@@H](C)O)NC(=O)[C@H](CC(=O)O)NC1=O [Compound 44] | – | 6.73 | – | –
9 | CC(C)C[C@@H]1NC(=O)[C@H](Cc2ccccc2)NC(=O)[C@@H]2C[C@@H](F)CN2[C@H](C(=O)NC(C)(C)C)[C@H](C)NC(=O)[C@H]([C@@H](C)O)NC(=O)[C@H](CC(=O)O)NC1=O [Compound 45] | 3.2 | 6.62 | 7.13 | –
10 | CC(C)C[C@@H]1NC(=O)[C@H](Cc2ccc(-c3ccccc3)cc2)NC(=O)[C@@H]2C[C@@H](F)CN2[C@H](C(=O)NC(C)(C)C)[C@H](C)NC(=O)[C@H]([C@@H](C)O)NC(=O)[C@H](CC(=O)O)NC1=O [Compound 46] | 2.4 | 6.59 | 6.97 | –
11 | CC(C)C[C@@H]1NC(=O)[C@H]2c3ccccc3CCN2C(=O)[C@@H]2CCCN2[C@H](C(=O)NC(C)(C)C)[C@H](C)NC(=O)[C@H]([C@@H](C)O)NC(=O)[C@H](CC(=O)O)NC1=O [Compound 98] | – | 7.24 | – | –
12 | CC(C)C[C@@H]1NC(=O)[C@H]2CCCCN2C(=O)[C@H](Cc2ccc(O)cc2)N(C)C(=O)[C@@H]2CCCN2[C@H](C(=O)NC(C)(C)C)[C@H](C)NC(=O)[C@H]([C@@H](C)O)NC(=O)[C@H](CC(=O)O)NC1=O [Compound 148] | – | 6.98 | – | –
13 | CC(C)C[C@@H]1NC(=O)C[C@H](CCCCN)NC(=O)[C@@H](CCCNC(=N)N)NC(=O)[C@@H]2CCCN2[C@H](C(=O)NC(C)(C)C)[C@H](C)NC(=O)[C@H]([C@@H](C)O)NC(=O)[C@H](CC(=O)O)NC1=O [Compound 217] | – | 5.96 | – | –
14 | CC(C)C[C@@H]1NC(=O)C[C@H](CCCCN)NC(=O)[C@H](Cc2ccccc2-c2ncccc2Br)NC(=O)[C@@H]2CCCN2[C@H](C(=O)NC(C)(C)C)[C@H](C)NC(=O)[C@H]([C@@H](C)O)NC(=O)[C@H](CC(=O)O)NC1=O [Compound 294] | – | – | 7.35 | –
15 | CC(C)C[C@@H]1NC(=O)C[C@H](CCCCN)NC(=O)[C@H](Cc2ccccc2-c2cccnc2Br)NC(=O)[C@@H]2CCCN2[C@H](C(=O)NC(C)(C)C)[C@H](C)NC(=O)[C@H]([C@@H](C)O)NC(=O)[C@H](CC(=O)O)NC1=O [Compound 297] | – | – | 7.43 | –
16 | COc1cccc(Cl)c1-c1cccc(C[C@@H]2NC(=O)[C@@H]3CCCN3[C@H](C(=O)NC(C)(C)C)[C@H](C)NC(=O)[C@H]([C@@H](C)O)NC(=O)[C@H](CC(=O)O)NC(=O)[C@H](CC(C)C)NC(=O)C[C@H](CCCCN)NC2=O)c1 [Compound 298] | – | – | 7.12 | –
17 | CC(C)C[C@@H]1NC(=O)[C@@H]2CCN2C(=O)C[C@H](CCCCN)NC(=O)[C@@H]2CCCN2[C@H](C(=O)NC(C)(C)C)[C@H](C)NC(=O)[C@H]([C@@H](C)O)NC(=O)[C@H](CC(=O)O)NC1=O [Compound 319] | – | 6.51 | – | –
18 | CC(C)C[C@@H]1NC(=O)c2ccc(Br)c(c2)CNC(=O)[C@H](Cc2ccc(O)cc2)NC(=O)[C@@H]2CCCN2[C@H](C(=O)NC(C)(C)C)[C@H](C)NC(=O)[C@H]([C@@H](C)O)NC(=O)[C@H](CC(=O)O)NC1=O [Compound 336] | 5.6 | – | 6.79 | –
19 | C[C@@H]1NC(=O)[C@H]([C@@H](C)O)NC(=O)[C@H](CC(=O)O)NC(=O)[C@H](CC(C)(C)C)NC(=O)c2ccc(-c3ccnc4ccccc34)c(c2)CNC(=O)[C@@H]2CCCN2[C@@H]1C(=O)NC(C)(C)C [Compound 355] | – | – | 7.32 | –
20 | CC(C)C[C@@H]1NC(=O)c2cccc(c2)CN(Cc2ccccc2)C(=O)[C@@H]2CCCN2[C@H](C(=O)NC(C)(C)C)[C@H](C)NC(=O)[C@H]([C@@H](C)O)NC(=O)[C@H](CC(=O)O)NC1=O [Compound 357] | – | – | 6.99 | –
21 | CC(C)C[C@@H]1NC(=O)c2ccc(N3CCOCC3)c(c2)CNC(=O)[C@@H]2CCCN2[C@H](C(=O)NC(C)(C)C)[C@H](C)NC(=O)[C@H]([C@@H](C)O)NC(=O)[C@H](CC(=O)O)NC1=O [Compound 379] | 4.9 | – | 7.48 | –
22 | CC(C)C[C@@H]1NC(=O)c2ccc(N(C)C)c(c2)CNC(=O)[C@@H]2CCCN2[C@H](C(=O)NC(C)(C)C)[C@H](C)NC(=O)[C@H]([C@@H](C)O)NC(=O)[C@H](CC(=O)O)NC1=O [Compound 380] | – | – | 7.39 | –
23 | CC(C)C[C@@H]1NC(=O)c2ccc(-c3cccc(CN)c3)c(c2)CNC(=O)[C@@H]2CCCN2[C@H](C(=O)NC(C)(C)C)[C@H](C)NC(=O)[C@H]([C@@H](C)O)NC(=O)[C@H](CC(=O)O)NC1=O [Compound 382] | – | – | 7.92 | –
24 | CC(C)C[C@@H]1NC(=O)C[C@H](CCCCN)N(C)C(=O)[C@H](CCCCNC(=O)c2cc(C(=O)O)cc(C(=O)NCCCC[C@@H]3NC(=O)[C@@H]4CCCN4[C@H](C(=O)NC(C)(C)C)[C@H](C)NC(=O)[C@H]([C@@H](C)O)NC(=O)[C@H](CC(=O)O)NC(=O)[C@H](CC(C)C)NC(=O)C[C@H](CCCCN)N(C)C3=O)c2)NC(=O)[C@@H]2CCCN2[C@H](C(=O)NC(C)(C)C)[C@H](C)NC(=O)[C@H]([C@@H](C)O)NC(=O)[C@H](CC(=O)O)NC1=O [Compound 537] | – | – | – | 0.4
